One assay addresses STAT6 (Homo sapiens (Human), UniProt P42226). The assay is described as follows: STAT6 degrader assay (HiBiT, HeLa LgBiT clone 4.14). Type of assay: cell-based. Summed up: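 HeLa LgBiT clone 4.14 cells with HiBiT knocked into endogenous STAT6 were treated with compound for 4-24 h at 37° C. Luminescence after Nano-GLO substrate (0.5 h) measured remaining STAT6; 50 μM terfenadine wells defined 100% degradation, and DC50 (nM) was derived.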
(The HiBiT peptide binds its large partner to form an active luciferase.)

The next assay deals with eotaxin-3 release. The assay is described as follows: Human whole blood eotaxin-3 assay (IL-4 stimulated). The format is cell-based. The procedure: Human Whole Blood Eotaxin-3 Assay
This was a human whole blood assay using recombinant human Interleukin 4 to stimulate the blood and measuring the ability of the test compounds to inhibit eotaxin-3 release. Compounds or media were added to the wells and incubated together with human whole blood for 120 minutes at 37° C. Subsequently, recombinant IL-4 was added at a final concentration of 0.4 nM. The plates were incubated for 48 hours.
Test compounds which inhibited eotaxin-3 release upon stimulation with human IL-4 (E. coli) interfered with the signaling in human whole blood are expected to have activity in human beings. […] The EC50 value indicates at which concentration test compounds were active and in inhibiting the eotaxin-3 release. As eotaxin-3 release is down-stream of STAT6 signaling both STAT6 inhibitors and STAT6 degraders are active in this assay.
The data from the human whole blood eotaxin-3 assay is shown below for Examples 3e27, 3e50, 3e17, and 3e51 (where the effect in % is plotted against the test concentration in M on a log-scale).

[1] abbreviates: HeLa LgBiT clone 4.14, 4-24 h; geometric mean; given for compounds with >80% Emax; read-out: STAT6 degradation DC50.
Setting [2] is: human whole blood, IL-4 0.4 nM, 48 hours, geometric mean, given for compounds with >80% Emax, read-out: Eotaxin-3 EC50.

Like-named read-outs stand apart in the source and are kept apart here.

Chain of STAT6 (P42226 whole entry): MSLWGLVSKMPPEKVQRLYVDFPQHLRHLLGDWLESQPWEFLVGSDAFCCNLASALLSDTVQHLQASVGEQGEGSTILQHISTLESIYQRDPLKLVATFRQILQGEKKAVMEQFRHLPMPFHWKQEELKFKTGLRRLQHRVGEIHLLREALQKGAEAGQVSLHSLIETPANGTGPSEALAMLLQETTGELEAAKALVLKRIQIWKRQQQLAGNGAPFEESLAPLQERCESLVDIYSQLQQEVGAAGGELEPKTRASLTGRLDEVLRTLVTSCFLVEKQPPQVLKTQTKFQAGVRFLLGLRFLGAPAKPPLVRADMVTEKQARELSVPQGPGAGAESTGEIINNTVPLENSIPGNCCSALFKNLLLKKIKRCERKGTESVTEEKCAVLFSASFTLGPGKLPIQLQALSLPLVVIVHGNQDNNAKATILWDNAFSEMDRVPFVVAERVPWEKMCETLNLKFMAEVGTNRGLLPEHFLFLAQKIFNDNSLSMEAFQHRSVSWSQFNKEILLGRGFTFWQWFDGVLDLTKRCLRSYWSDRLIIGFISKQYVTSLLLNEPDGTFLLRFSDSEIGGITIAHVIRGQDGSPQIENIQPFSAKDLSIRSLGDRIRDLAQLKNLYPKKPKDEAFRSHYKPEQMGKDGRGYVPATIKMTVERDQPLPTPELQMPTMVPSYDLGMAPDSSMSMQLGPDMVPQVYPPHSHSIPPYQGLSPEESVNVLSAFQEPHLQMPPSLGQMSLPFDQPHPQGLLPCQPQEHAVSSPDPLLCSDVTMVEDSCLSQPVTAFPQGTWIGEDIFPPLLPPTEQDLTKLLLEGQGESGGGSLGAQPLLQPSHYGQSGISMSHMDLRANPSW

The DC50 is the concentration giving 50% degradation. A word on the EC50: it is the concentration at which the effect is half-maximal. `C[C@H]1CN(Cc2ccc3c(c2)C2(CCC2)C(=O)N3C2CCC(=O)NC2=O)CCN1CC1CCN(C(=O)c2ccc(C3CCN([C@@H](C)c4cc5c(-c6ccc(N)nc6)ccnc5n4C)CC3)cc2)CC1` (stereo partly drawn) [Example 3h48, 3-(5′-(((S)-4-((1-(4-(1-((S)-1-(4-(6-aminopyridin-3-yl)-1-methyl-1H-pyrrolo[2,3-b]pyridin-2-yl)ethyl)piperidin-4-yl)benzoyl)piperidin-4-yl)methyl)-3-methylpiperazin-1-yl)methyl)-2′-oxospiro-[cyclobutane-1,3′-indolin]-1′-yl)piperidine-2,6-dione]: the DC50 on STAT6 (setting [1]) turned out to be 3 nM. In addition, the EC50 in the assay on eotaxin-3 release (setting [2]) was determined as 13.2 nM.
As to `C[C@H]1CN(Cc2ccc3c(c2)n(C)c(=O)n3C2CCC(=O)NC2=O)CCN1CC1CCN(C(=O)c2ccc(C3CCN([C@@H](C)c4cc5c(-c6ncc(N)cc6F)ccnc5n4C)CC3)cc2)CC1` (stereo partly drawn) [Example 3e38, 3-(5-(((S)-4-((1-(4-(1-((S)-1-(4-(5-amino-3-fluoropyridin-2-yl)-1-methyl-1H-pyrrolo[2,3-b]pyridin-2-yl)ethyl)piperidin-4-yl)benzoyl)piperidin-4-yl)methyl)-3-methylpiperazin-1-yl)methyl)-3-methyl-2-oxo-2,3-dihydro-1H-benzo[d]imidazol-1-yl)piperidine-2,6-dione], the DC50 on STAT6 (setting [1]) was found to be 1 nM. The EC50 with eotaxin-3 release (setting [2]) turned out to be 7.8 nM.
The matching figures for `CN(C(=O)c1ccc(C2CCN(Cc3cc4c(-c5ccc(N)nc5)ccnc4n3C)CC2)cc1)c1ccc(C2CCN(Cc3ccc4c(c3)n(C)c(=O)n4C3CCC(=O)NC3=O)CC2(F)F)cc1` (stereo not shown) [Example 3p2, 4-(1-((4-(6-aminopyridin-3-yl)-1-methyl-1H-pyrrolo[2,3-b]pyridin-2-yl)methyl)piperidin-4-yl)-N-(4-(1-((1-(2,6-dioxopiperidin-3-yl)-3-methyl-2-oxo-2,3-dihydro-1H-benzo[d]imidazol-5-yl)methyl)-3,3-difluoropiperidin-4-yl)phenyl)-N-methylbenzamide]: 0.8 nM and 17 nM.
In the case of `C[C@H]1CN(Cc2ccc3c(c2)n(C)c(=O)n3C2CCC(=O)NC2=O)CCN1CC1CCN(C(=O)c2ccc(C3CCN([C@@H](C)c4cc5c(-c6ccc(N)nn6)ccnc5n4C)CC3)cc2)CC1` (stereo partly drawn) [Example 3e52, 3-(5-(((S)-4-((1-(4-(1-((S)-1-(4-(6-aminopyridazin-3-yl)-1-methyl-1H-pyrrolo[2,3-b]pyridin-2-yl)ethyl)piperidin-4-yl)benzoyl)piperidin-4-yl)methyl)-3-methylpiperazin-1-yl)methyl)-3-methyl-2-oxo-2,3-dihydro-1H-benzo[d]imidazol-1-yl)piperidine-2,6-dione], the DC50 on STAT6 (read-out: STAT6 degradation DC50; HeLa LgBiT clone 4.14, 4-24 h; geometric mean; given for compounds with >80% Emax) turned out to be 0.9 nM. For the same compound, the EC50 with eotaxin-3 release (Homo sapiens, 48 h, read-out: Eotaxin-3 EC50 (nM)) was determined as 1.5 nM.
In the case of `C[C@@H](c1cc2c(-c3ccc(N)nc3)ccnc2n1C)N1CCC(c2ccc(C(=O)N3CCC(CN4CCN(Cc5ccc6c(c5)n(C)c(=O)n6C5CCC(=O)NC5=O)CC4C(F)(F)F)CC3)cc2)CC1` (stereo partly drawn) [Example 3e31, 3-(5-((4-((1-(4-(1-((S)-1-(4-(6-aminopyridin-3-yl)-1-methyl-1H-pyrrolo[2,3-b]pyridin-2-yl)ethyl)piperidin-4-yl)benzoyl)piperidin-4-yl)methyl)-3-(trifluoromethyl)piperazin-1-yl)methyl)-3-methyl-2-oxo-2,3-dihydro-1H-benzo[d]imidazol-1-yl)piperidine-2,6-dione], the DC50 on STAT6 (setting [1]) is 2 nM. The 50% effective concentration (EC50) in the assay with eotaxin-3 release (setting [2]) turned out to be 9.3 nM.
For the compound `C[C@H]1CN(Cc2cc3c(cc2F)n(C2CCC(=O)NC2=O)c(=O)n3C2CC2)CCN1CC1CCN(C(=O)c2ccc(C3CCN([C@@H](C)c4cc5c(-c6ccc(N)nc6)ccnc5n4C)CC3)cc2)CC1` (stereo partly drawn) [Example 3e58, 3-(5-(((S)-4-((1-(4-(1-((S)-1-(4-(6-aminopyridin-3-yl)-1-methyl-1H-pyrrolo[2,3-b]pyridin-2-yl)ethyl)piperidin-4-yl)benzoyl)piperidin-4-yl)methyl)-3-methylpiperazin-1-yl)methyl)-3-cyclopropyl-6-fluoro-2-oxo-2,3-dihydro-1H-benzo[d]imidazol-1-yl)piperidine-2,6-dione], at STAT6 (setting [1]), the DC50 is 0.8 nM. Further, the EC50 with eotaxin-3 release (setting [2]) was 1.9 nM.
The matching figures for `C[C@@H](c1cc2c(-c3ccc(N)nc3)ccnc2n1C)N1CCC(c2ccc(C(=O)N3CCC(CN4CCN(Cc5cc6c(cc5F)n(C5CCC(=O)NC5=O)c(=O)n6C)CC4)CC3)cc2)CC1` (stereo partly drawn) [Example 3e33, 3-(5-((4-((1-(4-(1-((S)-1-(4-(6-aminopyridin-3-yl)-1-methyl-1H-pyrrolo[2,3-b]pyridin-2-yl)ethyl)piperidin-4-yl)benzoyl)piperidin-4-yl)methyl)piperazin-1-yl)methyl)-6-fluoro-3-methyl-2-oxo-2,3-dihydro-1H-benzo[d]imidazol-1-yl)piperidine-2,6-dione]: 1.8 nM and 4.9 nM.
In the case of `CC[C@H]1CN(Cc2ccc3c(c2)n(C2CC2)c(=O)n3[C@@H]2CCC(=O)NC2=O)CCN1CC1CCN(C(=O)c2ccc(C3CCN([C@@H](C)c4cc5c(-c6ccc(N)nc6)ccnc5n4C)CC3)cc2)CC1` (single isomer, unassigned) [Example 3e64], at STAT6 (setting [1]), the DC50 came to 2 nM. Further, in the assay with eotaxin-3 release (setting [2]), the EC50 was determined as 6 nM.
`C[C@@H](c1cc2c(-c3ccc(N)nc3)ccnc2n1C)N1CCC(c2ccc(C(=O)N3CCC(CC4CCN(c5ccc6c(c5)C5(CC5)C(=O)N6C5CCC(=O)NC5=O)CC4)CC3)cc2)CC1` (stereo partly drawn) [Example 3h13, 3-(5′-(4-((1-(4-(1-((S)-1-(4-(6-aminopyridin-3-yl)-1-methyl-1H-pyrrolo[2,3-b]pyridin-2-yl)ethyl)piperidin-4-yl)benzoyl)piperidin-4-yl)methyl)piperidin-1-yl)-2′-oxospiro[cyclopropane-1,3′-indolin]-1′-yl)piperidine-2,6-dione]: the DC50 at STAT6 (setting [1]) was determined as 48.7 nM. Further, in the assay on eotaxin-3 release (setting [2]), the EC50 is 23.2 nM.
For the compound `C[C@H]1CN(Cc2ccc3c(c2)n(C)c(=O)n3C2CCC(=O)NC2=O)CCN1CC1CCN(C(=O)c2ccc(C3CCN([C@@H](C)c4cc5c(-c6cnc(N)c(F)c6)ccnc5n4C)CC3)cc2)CC1` (stereo partly drawn) [Example 3e47, 3-(5-(((S)-4-((1-(4-(1-((S)-1-(4-(6-amino-5-fluoropyridin-3-yl)-1-methyl-1H-pyrrolo[2,3-b]pyridin-2-yl)ethyl)piperidin-4-yl)benzoyl)piperidin-4-yl)methyl)-3-methylpiperazin-1-yl)methyl)-3-methyl-2-oxo-2,3-dihydro-1H-benzo[d]imidazol-1-yl)piperidine-2,6-dione], the DC50 on STAT6 (setting [1]) is 2.2 nM. In addition, the EC50 in the assay on eotaxin-3 release (setting [2]) stood at 4.9 nM.
In general, Emax refers to the greatest response seen or fitted, relative to the assay's reference. On to `C[C@@H](c1cc2c(-c3ccc(N)nc3)ccnc2n1C)N1CCC(c2ccc(C(=O)N3CCC(CN4CCN(Cc5ccc6c(c5)n(CCO)c(=O)n6C5CCC(=O)NC5=O)CC4)CC3)cc2)CC1` (stereo partly drawn) [Example 3e36, 3-(5-((4-((1-(4-(1-((S)-1-(4-(6-aminopyridin-3-yl)-1-methyl-1H-pyrrolo[2,3-b]pyridin-2-yl)ethyl)piperidin-4-yl)benzoyl)piperidin-4-yl)methyl)piperazin-1-yl)methyl)-3-(2-hydroxyethyl)-2-oxo-2,3-dihydro-1H-benzo[d]imidazol-1-yl)piperidine-2,6-dione], for which the Emax at STAT6 (HeLa LgBiT clone 4.14, 4-24 h; read-out: STAT6 degradation Emax (%)) lay in the range of 70 to 80%. In the assay with eotaxin-3 release (setting [2]), the EC50 was 23.7 nM.
For the compound `CNc1ccc(-c2ccnc3c2cc([C@H](C)N2CCC(c4ccc(C(=O)N5CCC(CN6CCN(Cc7ccc8c(c7)n(C7CC7)c(=O)n8[C@@H]7CCC(=O)NC7=O)C[C@@H]6C)CC5)cc4)CC2)n3C)cn1` (single isomer, unassigned) [Example 3h27], the DC50 on STAT6 (setting [1]) is 1.8 nM. Besides, the EC50 in the assay with eotaxin-3 release (setting [2]) came to 5.8 nM.
The matching figures for `CNc1ccc(-c2ccnc3c2cc([C@H](C)N2CC=C(c4c(C)cc(C(=O)N5CCC(CN6CCN(Cc7ccc8c(c7)C(C)(C)C(=O)N8C7CCC(=O)NC7=O)C[C@@H]6C)CC5)cc4F)CC2)n3C)cn1` (stereo partly drawn) [Example 3h18, 3-(5-(((S)-4-((1-(3-fluoro-5-methyl-4-(1-((S)-1-(1-methyl-4-(6-(methylamino)pyridin-3-yl)-1H-pyrrolo[2,3-b]pyridin-2-yl)ethyl)-1,2,3,6-tetrahydropyridin-4-yl)benzoyl)piperidin-4-yl)methyl)-3-methylpiperazin-1-yl)methyl)-3,3-dimethyl-2-oxoindolin-1-yl)piperidine-2,6-dione]: 6.3 nM and 12.3 nM.
The matching figures for `Cn1c(CN2CCC(c3ccc(C(=O)N4CCC(CN5CCN(Cc6ccc7c(c6)n(C)c(=O)n7C6CCC(=O)NC6=O)CC5)CC4)cc3)CC2)cc2c(-c3ccc(N)nc3)ccnc21` (stereo not shown) [Example 3e2, 3-(5-((4-((1-(4-(1-((4-(6-aminopyridin-3-yl)-1-methyl-1H-pyrrolo[2,3-b]pyridin-2-yl)methyl)piperidin-4-yl)benzoyl)piperidin-4-yl)methyl)piperazin-1-yl)methyl)-3-methyl-2-oxo-2,3-dihydro-1H-benzo[d]imidazol-1-yl)piperidine-2,6-dione]: 4.6 nM and 98.7 nM.

The values are drawn from US20250325677A1, “STAT6 DEGRADERS” (Gilead Sciences, Inc., priority 2024, published 2025).
